Here are results for one molecule from US7989005B2, “Corosolic acid formulation and its application for weight-loss management and blood sugar balance” (Soft Gel Technologies, Inc., priority 2000, dated 2011).

Structures are written as SMILES.

Series [1] can be described thus: Acute toxicity studies in rats, single oral limit-dose. The series is classed as in vivo. As to conditions: single oral limit-dose of 5 g/Kg. From the text: The Journal of the Philippine Medical Association, 22, #7, 395402, 1940; Garcia, F. Distribution and Deterioration of Insulin-like Principle in Lagerstroemia Speciosa (Banaba). Acta Medica Philippina, 99-104; Garcia, F., and Melencio-Maglalang, P. Application of Banabins (A Plantisul Preparation) and S. B. Menus to Diabetics. The Journal of the Philippine Medical Association, 33, #1, 7-16, 1957; Garcia, F. Criticisms and Answers on Published Articles concerning Banabins or Plantisul Tablets. The Journal of the Philippine Medical Association, 35, #5, 313-319, 1959; Garcia, L., Pojas, F., Castro, I., Venzon, E., Sisson, F. and Capal, T. Pharmaceutico-chemical and Pharmacological Studies on a Crude Drug from Lagerstroemia Speciosa. The Philippine Journal of Science, 116, #4, 361-375, 1987; Scalori V et al., Int. J. Tiss. Reac., 1983, X 2, 95-97).

Series [2] deals with Ehrlich Ascites tumor cells. Particulars: in-vitro; cited from earlier work.

Consider `C[C@H]1[C@H](C)CC[C@]2(C(=O)O)CC[C@]3(C)C(=CC[C@@H]4[C@@]5(C)C[C@@H](O)[C@H](O)C(C)(C)[C@@H]5CC[C@]43C)[C@H]12` [Corosolic acid, 2-a-hydroxyursolic acid], for which the acute toxicity entry in series [1] was “safe and non-toxic”. Besides, the “cellular uptake of glucose” value in series [2] is on record as “improves the cellular uptake of glucose”.
